Measurements published in ChEMBL document CHEMBL4842332, “Eriocitrin Contained in Lemon Peel Ameliorates Disuse Muscle Atrophy by Suppressing the Expression of Atrogin-1 and MuRF-1 in Denervated Mice” (2021).
Active and inactive are the calls of the source. The calls are words filed in the database; no cut-off is given here.

How the values were obtained:
Mus musculus [1] = organism: Mus musculus; test: Upregulation of IGF-1 mRNA expression in denervated C57BL/6NCrSlc mouse by RT-PCR analysis; assay type: functional
Mus musculus [2] = organism: Mus musculus; test: Downregulation of FOXO1 mRNA expression in denervated C57BL/6NCrSlc mouse by RT-PCR analysis; assay type: functional
Mus musculus [3] = organism: Mus musculus; test: Downregulation of MuRF-1 mRNA expression in denervated C57BL/6NCrSlc mouse by RT-PCR analysis; assay type: functional
Mus musculus [4] = organism: Mus musculus; test: Effect of PPARgamma mRNA expression in denervated C57BL/6NCrSlc mouse by RT-PCR analysis; assay type: functional, organism-based
Mus musculus [5] = organism: Mus musculus; test: Upregulation of Atrogin-1 mRNA expression in denervated C57BL/6NCrSlc mouse by RT-PCR analysis; assay type: functional
Mus musculus [6] = organism: Mus musculus; test: Effect of PPARdelta mRNA expression in denervated C57BL/6NCrSlc mouse by RT-PCR analysis; assay type: functional, organism-based
Mus musculus [7] = organism: Mus musculus; test: Upregulation of SOD1 mRNA expression in denervated C57BL/6NCrSlc mouse by RT-PCR analysis; assay type: functional
Mus musculus [8] = organism: Mus musculus; test: Effect on PGC1a mRNA expression in denervated C57BL/6NCrSlc mouse by RT-PCR analysis; assay type: functional
Mus musculus [9] = organism: Mus musculus; test: Antioxidant activity in denervated C57BL/6NCrSlc mouse assessed as […] in GSSG/GSH ratio in gastrocnemius muscle measured after 30 mins; assay type: functional, organism-based
Mus musculus [10] = organism: Mus musculus; test: Antioxidant activity in denervated C57BL/6NCrSlc mouse assessed as […] in lipid peroxide level in gastrocnemius muscle measured after 30 mins; assay type: functional, organism-based
Mus musculus [11] = organism: Mus musculus; test: Toxicity in denervated C57BL/6NCrSlc mouse assessed as effect on body weight (reference value: 25.74 g); assay type: functional
Mus musculus [12] = organism: Mus musculus; test: Suppression of denervation-induced gastrocnemius muscle weight loss in C57BL/6NCrSlc mouse; assay type: functional, organism-based

C[C@@H]1O[C@@H](OC[C@H]2O[C@@H](Oc3cc(O)c4c(c3)O[C@H](c3ccc(O)c(O)c3)CC4=O)[C@H](O)[C@@H](O)[C@@H]2O)[C@H](O)[C@H](O)[C@H]1O [ERIOCITRIN]
Activity (Mus musculus [1]): Active
Activity (Mus musculus [2]): Active
Activity (Mus musculus [3]): Active
Activity (Mus musculus [4]): inactive
Activity (Mus musculus [5]): inactive
Activity (Mus musculus [6]): inactive
Activity (Mus musculus [7]): Active
Activity (Mus musculus [8]): inactive
Activity (Mus musculus [9]): Active
Activity (Mus musculus [10]): Active
Activity (Mus musculus [11]): 25.37 g
Activity (Mus musculus [12]): Active
